“And” between values parts separate entries of the source, which are not always exact repeats. Identical values can stand only once. Like-named read-outs stand apart in the source and are kept apart here.
Assays:
[1] = Solubility measurement (excess added to solvent, shaken one hour, supernatant assayed); assay type: physicochemical; settings: thermodynamic from solid, 25° C.
Experimental: Incidentally, the method for measuring the solubility in each example is as follows. Thus, an excessive amount of the present compound was added to a certain amount of solvent, the mixture was shaken for one hour, the supernatant liquid was removed and the amount of the present compound contained therein was measured wherefrom the solubility was calculated.

[2] = test system: Helicobacter pylori ATCC 43504; test: Eradication of Helicobacter pylori in stomach of infected Mongolian gerbils (viable cell counting); assay type: in vivo; settings: oral 10 ml/kg three times on the 11th day, stomach viable cells 20 hours after final administration, individual animals 1-3, versus control 3.7 × 10^4 CFU/stomach, hydrochloride
Experimental: Helicobacter pylori ATCC 43504 (100 μl) was inoculated into Brain heart infusion broth containing 10% calf serum and incubated at 37° C. for 24 hours in a microaerophilic atmosphere. The culture broth (0.5 ml containing about 3×10^8 CFU/ml) was administered orally to Mongolian gerbils (MON/Jms/Gba Slc; male of six weeks age) after fasting for 24 hours, then neither feed nor water was given for four hours and, after that, the animals were given with feed and water for ten days. Three infected animals as prepared in (1) were used per group. They were fasted from 20 hours before the 11th day (although water was made freely taken by them) and, during the fasted stage, 10 ml/kg each of the test drugs for administration prepared in Examples and Comparative Examples were orally given to them at 9:00, 13:00 and 17:00 o'clock on the 11th day. Feeding was started as from 21:00 o'clock and, after 20 hours from the final administration, stomach of the animals was removed and Helicobacter pylori living therein was subjected to a viable cell counting. The stomachs were cut open and the contents were removed (no washing conducted) and homogenized in 20 ml of 0.1M phosphate buffer (pH 7.2) to give a sample for viable cell counting. […] The growing colonies were counted after 6 days. […] Incidentally, the eradication rate was calculated according to the following calculating expression. […]

solubility at 1 h ([1]; 0.05M phosphate buffer, aqueous buffer, pH 6.5, read-out: Solubility in 0.05M phosphate buffer (pH 6.5)): < 0.1 µg/mL | solubility at 1 h ([1]; 0.1M acetate buffer, aqueous buffer, pH 4.0, read-out: Solubility in 0.1M acetate buffer (pH 4.0)): < 0.1 µg/mL | solubility at 1 h ([1]; first fluid (The Japanese Pharmacopoeia), simulated gastric fluid, pH 1.2, read-out: Solubility in the first fluid (The Japanese Pharmacopoeia) (pH 1.2)): < 0.1 µg/mL | solubility at 1 h ([1]; water, read-out: Solubility in water): 24 µg/mL
SMILES: Cc1ccc(COC(=O)c2ccc(-c3ccc(OC(=O)[C@H]4CC[C@H](CNC(=N)N)CC4)cc3)cc2)cc1.Cl [Comp.Ex.1, 4-[4-(4-Methylbenzyloxycarbonyl)phenyl]phenyl trans-4-guanidinomethylcyclohexanecarboxylate hydrochloride]
Eradication Rate (%) [2]: 95.7% and 62.2% and 0%
